Test results as given in patent US20050170966A1, “Surfactants and surfactant compositions” (priority 2002, published 2005).

Test system: mixtures of weeds: Cockspur (Echinochloa crus-galli), Fat-hen (Chenopodium album), Smartweed (Polygonum persicaria)
Experiment: Field trial: adjuvant effect on Glyphosate herbicidal activity on mixed weed plots
Format: in vivo
Conditions: glyphosate 1080 g(a.e.).ha^-1, adjuvant 540 g.ha^-1 (2:1)
Protocol: This Example tests the effect of adjuvants on Glyphosate herbicidal activity under field conditions. The herbicide was applied to test plots of weeds at a rate of 1080 g(a.e.).ha^−1 (350 l.ha^−1 of spray containing 3.086 g.l^−1 a.e.) with a weight ratio of active to adjuvant of 2:1=540 g(adjuvant).ha^−1. Spray plots were treated with the herbicide formulations, one of each of four adjuvants of the invention (SE1, SE2, SE3, and SE4) a fatty amine ethoxylate (FAE1) for comparison, or left untreated as controls (no weed control). The spray plots were in a completely randomised block design with 3 replicates of 3×5 m plots. the sprayed plots were sprayed using a compressed-air AZO sprayer at a pressure of 2.5 bar, equipped with Teejet XR80015VS nozzles. During this trial, it rained for about 15 minutes about 2 hours after spraying, giving a good indication of the rainfastness off the formulations tested.
The test plots used mixtures of the following weeds at the 2 to 4 leaf stage:
The results of spraying were evaluated by visual comparison with untreated control blocks 12, 20 and 35 days after treatment (DAT), assessing chlorosis (chlor) and growth inhibition (inhib) as percentages with 0=no effect and 100=complete kill as compared with the untreated controls.

[1] = 12 DAT, 0=no effect, 100=complete kill

Compound: CCCCCCCCCCCCCCCCCCOCCOCCOCCOCCOCCOCCOCCOCCOCCOCCOCCOCCOCCOCCOCCOCCOCCOCCOCCOCCOCCOCCOCCOCCOCCOCC(O)CN(CC)CC (stereo not drawn) [SE3, 1-diethylamino-2-hydroxypropane-3-(stearyl 25-ethoxylate)]
- inhib (%) growth inhibition (12 DAT): 63%
- chlor (%) chlorosis [1]: 62%
- chlor (%) chlorosis (20 DAT): 72%
- inhib (%) growth inhibition (20 DAT): 72%
- chlor (%) chlorosis (35 DAT): 68%
- inhib (%) growth inhibition (35 DAT): 75%

Compound: 1-[Diethylamino]-2-hydroxypropane-3-(Alc1 15-ethoxylate) [SE1]
- inhib (%) growth inhibition (12 DAT): 67%
- chlor (%) chlorosis [1]: 62%
- chlor (%) chlorosis (20 DAT): 77%
- inhib (%) growth inhibition (20 DAT): 78%
- chlor (%) chlorosis (35 DAT): 78%
- inhib (%) growth inhibition (35 DAT): 78%

Compound: 1-[Bis-(2-hydroxyethyl)-amino]-2-hydroxypropane-3-(stearyl 25-ethoxylate) [SE4]
- inhib (%) growth inhibition (12 DAT): 62%
- chlor (%) chlorosis [1]: 63%
- chlor (%) chlorosis (20 DAT): 75%
- inhib (%) growth inhibition (20 DAT): 75%
- chlor (%) chlorosis (35 DAT): 65%
- inhib (%) growth inhibition (35 DAT): 68%
